# From patent US20180228780A1, “3-(1H-PYRROLO[2,3-C]PYRIDIN-2-YL)-1H-INDAZOLES AND THERAPEUTIC USES THEREOF” (Samumed, LLC, priority 2015, published 2018)
# Tests used:
# Format in all cases: cell-based
# SW480 colon cancer cells = assay: Cell viability assay (CellTiter-Blue) in SW480 colon cancer cells; conditions: Homo sapiens; for EC50: 96 h, SW480 cell viability, four days incubation; for inhibition at 10 µM: SW480, read-out: percent inhibition at 10 μM
# How it was run: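 Fluorescence from resazurin reduced to resorufin by metabolically active cells was the read-out, taken after ~3 h with CellTiter-Blue.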
# IL-6 (THP-1 cells) = assay: IL-6 inhibition in THP-1 monocytes (HTRF); conditions: Homo sapiens; for inhibition at 10 µM: THP-1, read-out: percentage in parentheses printed under EC50 >10; for EC50: IL-6 inhibition, THP-1 cells, HTRF, 10-point dose-response starting from 10 μM
# How it was run: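 THP-1 cells serum-reduced (1% FBS, 24 h), plated 5000/well, stimulated with 500 ng/mL […] after 2 h and incubated a further 22 h at 37 °C. Secreted IL-6 quantified by HTRF (665/620 nm ratio), normalized to DMSO; EC50 from four-parameter fit, duplicates.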
# [1] = tested on: Primary human fibroblasts derived from IPF patients (LL29 cells); assay: Inhibition of the fibrotic process: αSMA staining in TGF-β1-treated LL29 fibroblasts; conditions: Fibroblast; for EC50: 96 h, LL29 cells, TGF-β1 20 ng/mL, 4 days, % αSMA-positive cells; for inhibition at 10 µM: read-out: percent inhibition at 10 μM
# How it was run: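 LL29 IPF-patient lung fibroblasts plated in F12 with 1% FBS, treated with TGF-β1 plus compound; TGF-β1/DMSO wells served as controls. After 4 days incubation, SYTOX green (1 μM final) added for 30 min at room temperature; αSMA staining used as fibrosis read-out.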
# [2] = tested on: primary human mesenchymal stem cells (hMSCs); assay: Induction of chondrogenesis in hMSCs (nodule imaging, Rhodamine B / Nile Red); conditions: 6 days; for EC50: concentration required to induce 50% levels of chondrogenesis vs TGF-β3, read-out: Conc (nM) of 50% TGF-β3 activity; for Emax: relative to TGF-β3 (10 ng/mL) positive control, read-out: Max. Activity as % TGF-β3 activity
# From the text: Representative compounds were screened using primary human mesenchymal stem cells (hMSCs) to determine their ability to induce chondrogenesis (process by which cartilage is developed).
# Primary human mesenchymal stem cells (hMSCs) were purchased from Lonza (Walkersville, Md.) and expanded in Mesenchymal Stem Cell Growth Media (Lonza). Cells between passage 3 and 6 were used for the experiments.
# Area of nodules in each well was normalized to the average of 3 DMSO treated wells on the same plate using Excel (Microsoft Inc.). The normalized averages (fold change over DMSO) of 2 or 3 replicate wells for each compound concentration were calculated. Due to solubility limitations of some of the compounds, curve fitting was incomplete leading to inaccurate EC50 determinations.
# Using TGF-β3 as a positive control, the concentration of representative compounds required to induce 50% levels of chondrogenesis is reported. In addition, the maximum activity of each compound and the respective dose that each compound reached maximum chondrogenesis activity is reported.
# [3] = tested on: Wnt activity (Sp5-Luc reporter, SW480 colon carcinoma cells); assay: Screening assay for Wnt activity: Sp5-Luc reporter gene assay in SW480 cells; conditions: Homo sapiens; for EC50: SW480 Sp5-Luc reporter, overnight incubation; for inhibition at 10 µM: SW480, read-out: percent inhibition at 10 μM
# How it was run: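 SW480 colon carcinoma cells stably carrying Sp5 promoter (eight TCF/LEF sites)-driven firefly luciferase, plated at 4,000 cells/well in 1% FBS medium and incubated overnight at 37° C. Luminescence normalised to DMSO-only cells; EC50 from four-parameter variable-slope nonlinear regression.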
SMILES,EC50 (SW480 colon cancer cells),inhibition at 10 µM (SW480 colon cancer cells),inhibition at 10 µM (IL-6 (THP-1 cells)),EC50 (IL-6 (THP-1 cells)),EC50 [1],inhibition at 10 µM [1],EC50 [2],Emax [2],EC50 [3],inhibition at 10 µM [3]
CC(C)CC(=O)Nc1cncc(-c2ccc3[nH]nc(-c4cc5c(-c6ccncc6)cncc5[nH]4)c3c2)c1 [Compound 114],> 10000 nM,24.8%,15.9%,> 10000 nM,> 10000 nM,47%,30 nM,70%,875 nM,
CN(C)Cc1cncc(-c2ccc3[nH]nc(-c4cc5c(-c6ccncc6)cncc5[nH]4)c3c2)c1 [Compound 125],2170 nM,,,1160 nM,2440 nM,,,18%,1060 nM,
"c1cc(-c2cncc3[nH]c(-c4n[nH]c5ccc(-c6cncc(CN7CCCC7)c6)cc45)cc23)ccn1 [Compound 126, 3-(4-(Pyridin-4-yl)-1H-pyrrolo[2,3-c]pyridin-2-yl)-5-(5-(pyrrolidin-1-ylmethyl)pyridin-3-yl)-1H-indazole]",2310 nM,,,2160 nM,1490 nM,,,48%,3390 nM,
"CCCC(=O)Nc1cncc(-c2ccc3[nH]nc(-c4cc5c(-c6ccncc6)cncc5[nH]4)c3c2)c1 [Compound 129, N-(5-(3-(4-(Pyridin-4-yl)-1H-pyrrolo[2,3-c]pyridin-2-yl)-1H-indazol-5-yl)pyridin-3-yl)butyramide]",> 10000 nM,15.5%,,1020 nM,6200 nM,,100 nM,124%,> 10000 nM,25.5%
"O=C(Nc1cncc(-c2ccc3[nH]nc(-c4cc5c(-c6ccncc6)cncc5[nH]4)c3c2)c1)C1CC1 [Compound 132, N-(5-(3-(4-(Pyridin-4-yl)-1H-pyrrolo[2,3-c]pyridin-2-yl)-1H-indazol-5-yl)pyridin-3-yl)cyclopropanecarboxamide]",> 10000 nM,20.6%,,765 nM,> 10000 nM,35.6%,,37%,395 nM,
CC(C)CC(=O)Nc1cncc(-c2ccc3[nH]nc(-c4cc5c(N6CCCCC6)cncc5[nH]4)c3c2)c1 [Compound 170],279 nM,,,46 nM,550 nM,,2700 nM,113%,377 nM,
"c1ncc(-c2ccc3[nH]nc(-c4cc5c(N6CCCCC6)cncc5[nH]4)c3c2)cc1CN1CCCC1 [Compound 182, 3-(4-(Piperidin-1-yl)-1H-pyrrolo[2,3-c]pyridin-2-yl)-5-(5-(pyrrolidin-1-ylmethyl)pyridin-3-yl)-1H-indazole]",4340 nM,,,503 nM,2420 nM,,,25%,1840 nM,
"c1ncc(-c2ccc3[nH]nc(-c4cc5c(N6CCCCC6)cncc5[nH]4)c3c2)cn1 [Compound 195, 3-(4-(Piperidin-1-yl)-1H-pyrrolo[2,3-c]pyridin-2-yl)-5-(pyrimidin-5-yl)-1H-indazole]",2900 nM,,,5610 nM,1080 nM,,,38%,1760 nM,
"CN1CCN(c2cncc3[nH]c(-c4n[nH]c5ccc(-c6cncc(N)c6)cc45)cc23)CC1 [Compound 227, 5-(3-(4-(4-Methylpiperazin-1-yl)-1H-pyrrolo[2,3-c]pyridin-2-yl)-1H-indazol-5-yl)pyridin-3-amine]",> 10000 nM,37.2%,48.5%,> 10000 nM,5310 nM,,30 nM,51%,8250 nM,
"CN1CCN(c2cncc3[nH]c(-c4n[nH]c5ccc(-c6cccnc6)cc45)cc23)CC1 [Compound 228, 3-(4-(4-Methylpiperazin-1-yl)-1H-pyrrolo[2,3-c]pyridin-2-yl)-5-(pyridin-3-yl)-1H-indazole]",4020 nM,,,1370 nM,774 nM,,,20%,4060 nM,
"CN1CCN(c2cncc3[nH]c(-c4n[nH]c5ccc(-c6cncc(NC(=O)CC(C)(C)C)c6)cc45)cc23)CC1 [Compound 240, 3,3-Dimethyl-N-(5-(3-(4-(4-methylpiperazin-1-yl)-1H-pyrrolo[2,3-c]pyridin-2-yl)-1H-indazol-5-yl)pyridin-3-yl)butanamide]",4450 nM,,,500 nM,2650 nM,,,31%,3480 nM,
CN1CCN(c2cncc3[nH]c(-c4n[nH]c5ccc(-c6cncc(CNCc7ccccc7)c6)cc45)cc23)CC1 [Compound 248],3630 nM,,,3590 nM,1160 nM,,30 nM,101%,3340 nM,
"Cc1ccncc1-c1ccc2[nH]nc(-c3cc4ccncc4[nH]3)c2c1 [Compound 257, 5-(4-Methylpyridin-3-yl)-3-(1H-pyrrolo[2,3-c]pyridin-2-yl)-1H-indazole]",109 nM,,,26 nM,484 nM,,300 nM,161%,191 nM,
"CCCC(=O)Nc1cncc(-c2ccc3[nH]nc(-c4cc5ccncc5[nH]4)c3c2)c1 [Compound 269, N-(5-(3-(1H-Pyrrolo[2,3-c]pyridin-2-yl)-1H-indazol-5-yl)pyridin-3-yl) butyramide]",986 nM,,,22 nM,410 nM,,900 nM,152%,452 nM,
"c1cc2cc(-c3n[nH]c4ccc(-c5cncc(CNCC6CCCC6)c5)cc34)[nH]c2cn1 [Compound 277, 1-(5-(3-(1H-Pyrrolo[2,3-c]pyridin-2-yl)-1H-indazol-5-yl)pyridin-3-yl)-N-(cyclopentylmethyl)methanamine]",1390 nM,,,31 nM,1390 nM,,,49%,1460 nM,
"CN(C)c1cncc(-c2ccc3[nH]nc(-c4cc5c(-c6ccoc6)cncc5[nH]4)c3c2)c1 [Compound 315, 5-(3-(4-(Furan-3-yl)-1H-pyrrolo[2,3-c]pyridin-2-yl)-1H-indazol-5-yl)-N,N-dimethylpyridin-3-amine]",559 nM,,,505 nM,1510 nM,,300 nM,69%,1450 nM,
CCCCC(=O)Nc1cncc(-c2ccc3[nH]nc(-c4cc5c(-c6ccoc6)cncc5[nH]4)c3c2)c1 [Compound 327],298 nM,,,689 nM,1340 nM,,30 nM,122%,915 nM,
"O=C(Nc1cncc(-c2ccc3[nH]nc(-c4cc5c(-c6cccs6)cncc5[nH]4)c3c2)c1)C1CC1 [Compound 356, N-(5-(3-(4-(Thiophen-2-yl)-1H-pyrrolo[2,3-c]pyridin-2-yl)-1H-indazol-5-yl)pyridin-3-yl)cyclopropanecarboxamide]",117 nM,,,14 nM,83 nM,,10 nM,156%,86 nM,
c1ccc(CNCc2cncc(-c3ccc4[nH]nc(-c5cc6c(-c7cccs7)cncc6[nH]5)c4c3)c2)cc1 [Compound 360],835 nM,,,57 nM,187 nM,,10 nM,57%,578 nM,
"CCC(=O)Nc1cncc(-c2ccc3[nH]nc(-c4cc5c(-c6cc(F)cc(CNS(C)(=O)=O)c6)cncc5[nH]4)c3c2)c1 [Compound 477, N-(5-(3-(4-(3-Fluoro-5-(methylsulfonamidomethyl)phenyl)-1H-pyrrolo[2,3-c]pyridin-2-yl)-1H-indazol-5-yl)pyridin-3-yl)propionamide]",901 nM,,,56 nM,1640 nM,,,29%,244 nM,
"CCNCc1cncc(-c2ccc3[nH]nc(-c4cc5c(-c6cc(F)cc(CNS(C)(=O)=O)c6)cncc5[nH]4)c3c2)c1 [Compound 482, N-(3-(2-(5-(5-((Ethylamino)methyl)pyridin-3-yl)-1H-indazol-3-yl)-1H-pyrrolo[2,3-c]pyridin-4-yl)-5-fluorobenzyl)methanesulfonamide]",> 10000 nM,24.3%,,187 nM,> 10000 nM,17.1%,100 nM,58%,> 10000 nM,29.8%
